From PubChem BioAssay (NCI)
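In this assay, cells in 96-well plates receive the compound at five concentrations for 48 hours. Endpoints are linearly interpolated between the surrounding concentrations. GI50 = concentration required for 50% inhibition of growth. At the TGI there is no net growth.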

Assays:
Experiment in all cases: inhibition of tumour cell growth, NCI panel, 48 h
SF-539 CNS = system: SF-539 CNS
HOP-92 NSCLC = system: HOP-92 NSCLC
A498 renal = system: A498 renal
SK-MEL-2 melanoma = system: SK-MEL-2 melanoma
HCT-15 colon = system: HCT-15 colon
MALME-3M melanoma = system: MALME-3M melanoma
OVCAR-5 ovarian = system: OVCAR-5 ovarian
KM12 colon = system: KM12 colon
CAKI-1 renal = system: CAKI-1 renal
A549 NSCLC = system: A549 NSCLC

| Structure (SMILES) | GI50 (SF-539 CNS) | TGI (SF-539 CNS) | GI50 (HOP-92 NSCLC) | TGI (HOP-92 NSCLC) | GI50 (A498 renal) | TGI (A498 renal) | GI50 (SK-MEL-2 melanoma) | TGI (SK-MEL-2 melanoma) | GI50 (HCT-15 colon) | TGI (HCT-15 colon) | GI50 (MALME-3M melanoma) | TGI (MALME-3M melanoma) | GI50 (OVCAR-5 ovarian) | TGI (OVCAR-5 ovarian) | GI50 (KM12 colon) | TGI (KM12 colon) | GI50 (CAKI-1 renal) | TGI (CAKI-1 renal) | GI50 (A549 NSCLC) | TGI (A549 NSCLC) |
| --- | --- | --- | --- | --- | --- | --- | --- | --- | --- | --- | --- | --- | --- | --- | --- | --- | --- | --- | --- | --- |
| C[C@@H]1Cc2c(ccc3[nH]ncc23)[C@@H](c2ccc(NC3CN(CCCF)C3)cn2)N1CC(F)(F)F | 16.9 µM | 32.5 µM | 3.1 µM | 20.1 µM | 15.6 µM | 36.6 µM | 19 µM | 42.9 µM | 16.7 µM | 35 µM | 12.4 µM | 26.6 µM | 26.4 µM | > 100 µM | 31.3 µM | > 100 µM | 15.9 µM | 37.1 µM | 30.8 µM | > 100 µM |
| C=CCCC(=O)CC(=O)OCc1ccccc1 | – | > 100 µM | – | > 100 µM | – | > 100 µM | – | > 100 µM | – | > 100 µM | – | > 100 µM | – | > 100 µM | – | > 100 µM | – | > 100 µM | – | > 100 µM |
| CC/C(C)=C1\CCC(CN(C)C)C1=O (centres undefined) | – | 32.7 µM | – | 46.2 µM | – | 37.5 µM | – | 32.5 µM | – | 29.2 µM | – | 39.1 µM | – | 33.6 µM | – | 28.4 µM | – | 4.36 µM | – | 49.2 µM |
| CNc1nc(-c2ccc3c(N)n[nH]c3c2)cc(N2C[C@@H](C(=O)NC3CCCCC3)CC[C@H]2C)n1 | 3.76 µM | 17.8 µM | 0.189 µM | 3.99 µM | 0.301 µM | 3.02 µM | 1.18 µM | 8.13 µM | 4.33 µM | 19.4 µM | 0.302 µM | 10.7 µM | 3.43 µM | 16.8 µM | 8.37 µM | 22.4 µM | 1.14 µM | 20.6 µM | 3.37 µM | 20.8 µM |
| Cc1nc(-n2nc(-c3ccccc3)cc2-c2ccccc2)sc1C(=O)/C=C/c1cccc([N+](=O)[O-])c1 | – | 22.8 µM | – | 51.1 µM | – | 51.9 µM | – | 34.2 µM | – | > 100 µM | – | 41.1 µM | – | 50.9 µM | – | 11.4 µM | – | 49.6 µM | – | 55.6 µM |
| CS(=O)(=O)CCNCc1ccoc1-c1ccc2ncnc(Nc3ccc(OCc4ccccc4)cc3)c2c1 | > 25 µM | > 25 µM | 1.98 µM | > 25 µM | 20.5 µM | > 25 µM | > 25 µM | > 25 µM | > 25 µM | > 25 µM | > 25 µM | > 25 µM | > 25 µM | > 25 µM | > 25 µM | > 25 µM | 1.78 µM | > 25 µM | > 25 µM | > 25 µM |
| Cc1c2ccccc2c(C)n2c1nc1cc(Cl)c(Cl)cc12 | > 100 µM | > 100 µM | > 100 µM | > 100 µM | > 100 µM | > 100 µM | > 100 µM | > 100 µM | 93.5 µM | > 100 µM | > 100 µM | – | > 100 µM | > 100 µM | > 100 µM | > 100 µM | 15.1 µM | > 100 µM | > 100 µM | > 100 µM |
| O=C1CC2OCC=C3CN4CCC5(C(=O)O)C(N1)C2C3CC45 (centres undefined) | – | > 100 µM | – | > 100 µM | – | > 100 µM | – | > 100 µM | – | > 100 µM | – | > 100 µM | – | > 100 µM | – | > 100 µM | – | > 100 µM | – | > 100 µM |
| O=C(CCc1cc(-c2ccc(F)cc2)n[nH]1)N(Cc1ccccc1)Cc1ccccc1 | – | > 100 µM | – | > 100 µM | – | > 100 µM | – | > 100 µM | – | > 100 µM | – | > 100 µM | – | > 100 µM | – | > 100 µM | – | > 100 µM | – | > 100 µM |
